This is an account of results in paper PMC6100557, “Quinazolinone-Amino Acid Hybrids as Dual Inhibitors of EGFR Kinase and Tubulin Polymerization” (Molecules : A Journal of Synthetic Chemistry and Natural …, 2018).

One series relates to MCF-7. Nature of the series: In vitro cytotoxic screening (MTT assay), MCF-7. It is filed as cell-based. The note with it: Homo sapiens, read-out: IC50 (µM) MCF-7. How it is done:
(§1) Cells were cultured using reported culture media, incubated for 24 h, treated with different concentrations of tested derivatives and incubated for 48 h. MTT was added to extract the color, which was then measured by ELISA [12].
A general note: Tetrazolium assays rely on reduction of a dye to a coloured formazan, in cell work by metabolically active cells.

In the next series the test system is MDA-MBA-231. Kind of series: In vitro cytotoxic screening (MTT assay), MDA-MBA-231. It is filed as cell-based. To be noted: read-out: IC50 (µM) MDA-MBA-231. How it is done: as §1
The subject of series [1] is MCF-7 and MDA-MBA-231 cells. Kind of series: Cytotoxic screening on the two cell lines, selectivity MCF-7 versus MDA-MBA-231. Type of series: cell-based. To be noted: for Selectivity Indices S1: S1 = IC50 (MCF-7)/IC50 (MDA-MBA-231); for Cell Line (type of selectivity): S1 > S2: more selective to MDA-MBA-231, S2 > S1: more selective to MCF-7; for Selectivity Indices S2: S2 = IC50 (MDA-MBA-231)/IC50 (MCF-7). How it is done: as §1

The target in another series is T1, porcine tubulin protein (Sus scrofa, UniProt P02550+P02554).
T1 construct: purchased Cytoskeleton Inc. BK006P
T1 sequence (P02550 whole entry): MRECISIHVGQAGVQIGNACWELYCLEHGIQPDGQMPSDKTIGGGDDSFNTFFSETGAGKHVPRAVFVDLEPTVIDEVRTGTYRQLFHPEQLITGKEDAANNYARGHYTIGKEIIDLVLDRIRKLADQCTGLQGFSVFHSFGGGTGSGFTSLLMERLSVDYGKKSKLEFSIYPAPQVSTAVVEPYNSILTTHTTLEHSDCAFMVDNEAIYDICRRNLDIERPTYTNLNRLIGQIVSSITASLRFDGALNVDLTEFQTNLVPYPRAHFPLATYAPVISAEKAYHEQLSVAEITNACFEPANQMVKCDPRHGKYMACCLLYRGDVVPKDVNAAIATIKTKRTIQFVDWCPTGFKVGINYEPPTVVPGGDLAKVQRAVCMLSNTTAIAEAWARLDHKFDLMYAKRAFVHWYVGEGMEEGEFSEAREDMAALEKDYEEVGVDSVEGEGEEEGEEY
T1 sequence (P02554 whole entry): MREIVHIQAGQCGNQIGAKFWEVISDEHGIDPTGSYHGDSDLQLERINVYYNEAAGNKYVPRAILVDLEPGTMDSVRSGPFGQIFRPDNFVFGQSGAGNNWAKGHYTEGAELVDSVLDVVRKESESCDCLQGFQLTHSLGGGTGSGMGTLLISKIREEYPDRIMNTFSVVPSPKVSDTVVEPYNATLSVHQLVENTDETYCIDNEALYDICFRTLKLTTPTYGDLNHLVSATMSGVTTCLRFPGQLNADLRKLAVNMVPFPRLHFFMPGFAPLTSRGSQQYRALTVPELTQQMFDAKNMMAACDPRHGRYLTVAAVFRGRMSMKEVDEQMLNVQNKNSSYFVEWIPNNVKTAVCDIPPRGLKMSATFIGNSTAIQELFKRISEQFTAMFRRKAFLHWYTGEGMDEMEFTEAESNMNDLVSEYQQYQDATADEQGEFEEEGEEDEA
Kind of series: Tubulin polymerization inhibition assay (CytoDYNAMIX Screen kit). Type of series: biochemical. The note with it: absorbance 340 nm, 30 min, 37 °C.

The target in a further series is EGFR kinase (Homo sapiens, UniProt P00533). Nature of the series: EGFR inhibition assay (HTScan EGFR kinase assay kit).
Chain of EGFR kinase (P00533 672-1210 limits assumed): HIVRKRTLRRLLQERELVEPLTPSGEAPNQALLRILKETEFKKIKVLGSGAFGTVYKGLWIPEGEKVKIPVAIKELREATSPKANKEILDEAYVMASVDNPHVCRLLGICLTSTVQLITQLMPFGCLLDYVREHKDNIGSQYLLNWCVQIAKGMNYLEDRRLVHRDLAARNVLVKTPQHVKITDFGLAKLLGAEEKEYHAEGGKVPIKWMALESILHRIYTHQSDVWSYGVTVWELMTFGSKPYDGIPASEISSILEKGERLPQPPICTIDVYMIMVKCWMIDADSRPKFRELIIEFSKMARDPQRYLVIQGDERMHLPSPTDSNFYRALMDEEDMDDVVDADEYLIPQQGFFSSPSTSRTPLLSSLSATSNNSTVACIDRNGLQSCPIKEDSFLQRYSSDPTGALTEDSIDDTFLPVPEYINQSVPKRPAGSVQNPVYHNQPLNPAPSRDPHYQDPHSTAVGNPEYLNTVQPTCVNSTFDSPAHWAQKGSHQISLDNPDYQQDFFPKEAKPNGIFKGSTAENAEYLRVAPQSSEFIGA
Setting [2] is: MCF7, MTT assay, 48 h incubation, mean ± SD.
[3] abbreviates: MTT assay, 48 h incubation, mean ± SD.

Entries after “also recorded” stand apart in the source; their conditions may differ. Like-named read-outs stand apart in the source and are kept apart here.

From the text for EGFR kinase: High tech HTScan EGFR kinase assay kits (Cell Signaling Technology, Danvers, MA, USA) were used to measure EGFR kinase activity. The assay was achieved following the manufacturers’ instructions and reported procedures [16, 23].
Method for porcine tubulin protein: Cold porcine tubulin protein (>99% purity) was added to a G-PEM buffer (80 mM PIPES, 2 mM MgCl2, 0.5 mM EGTA, 1 mM GTP, pH 6.9) containing 15% glycerol with or without the identified compounds. […] The absorbance was monitored every minute for 30 min at 340 nm [16, 23].

One may read the IC50 as the midpoint of a concentration-inhibition curve. As usually defined, the melting point is the temperature of the solid-liquid transition. Turning to `N[C@H](CS)C(=O)Nn1c(-c2ccc(F)cc2)nc2ccc(F)cc2c1=O` [F, (S)-2-amino-N-(6-fluoro-2-(4-fluorophenyl)-4-oxoquinazolin-3(4H)-yl)-3-mercaptopropanamide], the melting point was in the range of 220 to 222 °C. For the same compound, the IC50 in the series with MCF-7 (setting [2]) was determined as 1.93 ± 0.08 µM. The IC50 in the series on MDA-MBA-231 (setting [3]) was 12.5 ± 5.88 µM. Moreover, in series [1], the “Selectivity Indices S1” value turned out to be 0.15 ± 0.17, the “Cell Line (type of selectivity)” value is recorded as “more selective to MCF-7 than MDA-MBA-231; also recorded: MCF-7 selective” and the “Selectivity Indices S2” value was found to be 6.46 ± 0.04.
As to `C#Cc1cccc(Nc2ncnc3cc(OCCOC)c(OCCOC)cc23)c1` [Erlotinib, erlotinib, reference compound], the 50% inhibitory concentration (IC50) with MCF-7 (MCF7, 48 h) amounted to 1.14 µM; with MDA-MBA-231 (48 h), 2.55 ± 0.19 µM.
In turn, `CCC(C)[C@H](N)C(=O)Nn1c(-c2ccc(F)cc2)nc2ccc(F)cc2c1=O` (stereo partly drawn) [D, (2S)-2-amino-N-(6-fluoro-2-(4-fluorophenyl)-4-oxoquinazolin-3(4H)-yl)-3-methylpentanamide] came in with a melting point of 248 to 250 °C. Also, the half-inhibitory concentration (IC50) in the series with MCF-7 (setting [2]) amounted to 11.3 ± 1.25 µM. Also, the IC50 with MDA-MBA-231 (setting [3]) worked out at 7.49 ± 0.42 µM. In addition, in series [1], the “Selectivity Indices S1” value was 1.51 ± 0.24, the “Cell Line (type of selectivity)” value was “more selective to MDA-MBA-231 than MCF-7; also recorded: MDA-MBA-231 selective” and the “Selectivity Indices S2” value was found to be 0.66 ± 0.17.
`O=C(Nn1c(-c2ccc(F)cc2)nc2ccc(F)cc2c1=O)C1CCCN1` (centres unmarked) [H, N-(6-fluoro-2-(4-fluorophenyl)-4-oxoquinazolin-3(4H)-yl)pyrrolidine-2-carboxamide] showed a melting point of 235 to 237 °C. The IC50 in the series with MCF-7 (setting [2]) is 1.28 ± 0.03 µM. For the same compound, the IC50 in the series on MDA-MBA-231 (setting [3]) was 12 ± 1.33 µM. Besides, in series [1], the “Selectivity Indices S1” value worked out at 0.11 ± 0.23, the “Cell Line (type of selectivity)” value is recorded as “more selective to MCF-7 than MDA-MBA-231; also recorded: MCF-7 selective” and the “Selectivity Indices S2” value was 9.34 ± 0.02.
The compound `C[C@H](N)C(=O)Nn1c(-c2ccc(F)cc2)nc2ccc(F)cc2c1=O` [Compound B, (S)-2-amino-N-(6-fluoro-2-(4-fluorophenyl)-4-oxoquinazolin-3(4H)-yl)propanamide] had a melting point of 238 to 240 °C. Besides, the IC50 with MCF-7 (setting [2]) stood at 68.5 ± 3.27 µM. Besides, in the series on MDA-MBA-231 (setting [3]), the 50% inhibitory concentration (IC50) amounted to 42.9 ± 2.64 µM. In series [1], the “Selectivity Indices S1” value was 1.59 ± 0.05, the “Cell Line (type of selectivity)” value is “more selective to MDA-MBA-231 than MCF-7; also recorded: MDA-MBA-231 selective” and the “Selectivity Indices S2” value is 0.63 ± 0.23.
The compound `N[C@@H](CCC(=O)O)C(=O)Nn1c(-c2ccc(F)cc2)nc2ccc(F)cc2c1=O` [Compound E, (S)-4-(6-fluoro-2-(4-fluorophenyl)-4-oxoquinazolin-3(4H)-ylcarbamoyl)-4-aminobutanoic acid] showed a melting point of 244 to 246 °C. Further, the IC50 with MCF-7 (setting [2]) turned out to be 12.4 ± 5.73 µM. In the series on MDA-MBA-231 (setting [3]), the IC50 was determined as 0.43 ± 0.02 µM. Moreover, on porcine tubulin protein, it took 6.24 µM to reach half-maximal inhibition (IC50). Besides, in series [1], the “Selectivity Indices S1” value is given as 28.93 ± 0.08, the “Cell Line (type of selectivity)” value is recorded as “more selective to MDA-MBA-231 than MCF-7; also recorded: MDA-MBA-231 selective” and the “Selectivity Indices S2” value stood at 0.03 ± 0.11. Also, the IC50 against EGFR kinase was 0.54538 ± 4e-05 µM.
For the compound `N[C@@H](Cc1ccccc1)C(=O)Nn1c(-c2ccc(F)cc2)nc2ccc(F)cc2c1=O` [Compound G, (S)-2-amino-N-(6-fluoro-2-(4-fluorophenyl)-4-oxoquinazolin-3(4H)-yl)-3-phenylpropanamide], the melting point was in the range of 245 to 247 °C. In addition, in the series on MCF-7 (setting [2]), the IC50 was 0.44 ± 0.01 µM. In addition, the IC50 with MDA-MBA-231 (setting [3]) turned out to be 24.7 ± 1.7 µM. Also, in series [1], the “Selectivity Indices S1” value is reported as 0.02 ± 0.07, the “Cell Line (type of selectivity)” value is “more selective to MCF-7 than MDA-MBA-231; also recorded: MCF-7 selective” and the “Selectivity Indices S2” value amounted to 56.07 ± 0.15. The IC50 against EGFR kinase amounted to 0.16397 ± 7e-05 µM.
In the case of `NCC(=O)Nn1c(-c2ccc(F)cc2)nc2ccc(F)cc2c1=O` [A, 2-amino-N-(6-fluoro-2-(4-fluorophenyl)-4-oxoquinazolin-3(4H)-yl)acetamide], the melting point lay within 236 to 238 °C. For the same compound, the IC50 with MCF-7 (setting [2]) came to 25 ± 1.61 µM. For the same compound, the IC50 in the series with MDA-MBA-231 (setting [3]) worked out at 16.3 ± 1.21 µM. Besides, in series [1], the “Selectivity Indices S1” value worked out at 1.53 ± 0.12, the “Cell Line (type of selectivity)” value is given as “more selective to MDA-MBA-231 than MCF-7; also recorded: MDA-MBA-231 selective” and the “Selectivity Indices S2” value stood at 0.65 ± 0.05.
Take `CC(C)[C@H](N)C(=O)Nn1c(-c2ccc(F)cc2)nc2ccc(F)cc2c1=O` [C, (S)-2-amino-N-(6-fluoro-2-(4-fluorophenyl)-4-oxoquinazolin-3(4H)-yl)-3-methylbutanamide]: the melting point lay within 242 to 244 °C. For the same compound, the IC50 with MCF-7 (setting [2]) turned out to be 1.16 ± 0.05 µM. The IC50 with MDA-MBA-231 (setting [3]) was found to be 3.45 ± 0.21 µM. Also, in series [1], the “Selectivity Indices S1” value worked out at 0.34 ± 0.18, the “Cell Line (type of selectivity)” value is on record as “more selective to MCF-7 than MDA-MBA-231; also recorded: MCF-7 selective” and the “Selectivity Indices S2” value came out at 2.98 ± 0.71.
